Target: T1, CCR2 (Homo sapiens, UniProt P41597)
T1 construct: chemokine expressing cells (such as THP-1 cells for CCR2 assay or MOLT-4 cells for CCR9 assay); host or cells: THP-1 cells
Assay: chemotaxis (conventional migration), ligand binding or calcium mobilization (calcium flux) assays
Type: cell-based
Method: THP-1 cells and MOLT-4 cells were obtained from the American Type Culture Collection (Manassas, Va.) and cultured in RPMI tissue culture medium supplemented with 10% fetal calf serum (FCS) in a humidified 5% CO2 incubator at 37° C. Recombinant human chemokine proteins MCP-1 and TECK were obtained from R&D Systems (Minneapolis, Minn.). ^125I-labeled MCP-1 protein was obtained from Amersham (Piscataway, N.J.). ChemoTX® chemotaxis microchambers were purchased from Neuro Probe (Gaithersburg, Md.). CyQUANT® cell proliferation kits were purchased from Molecular Probes (Eugene, Oreg.). Calcium indicator dye Fluo-4 AM was purchased from Molecular Devices (Mountain View, Calif.).
Conventional-migration assay was used to determine the efficacy of potential receptor antagonists in blocking migration mediated through chemokines (such as CCR2 or CCR9). This assay was routinely performed using the ChemoTX® microchamber system with a 5-μm pore-sized polycarbonate membrane. To begin such an assay, chemokine expressing cells (such as THP-1 cells for CCR2 assay or MOLT-4 cells for CCR9 assay) were harvested by centrifugation of cell suspension at 1000 RPM on a GS-6R Beckman centrifuge. The cell pellet was resuspended in chemotaxis buffer (HBSS with 0.1% BSA) at 10×10^6cells/mL for CCR2 assay (5 ×10^6cells/mL for CCR9 assay). Test compounds at desired concentrations were prepared from 10 mM stock solutions by serial dilutions in chemotaxis buffer. An equal volume of cells and compounds were mixed and incubated at room temperature for 15 minutes. Afterwards, 20 μL of the mixture was transferred onto the porous membrane of a migration microchamber, with 29 μL of chemokine ligand (0.1 nM chemokine MCP-1 protein for CCR2 assay or 50 nm chemokine TECK protein for CCR9 assay) placed at the lower chamber. Following an incubation at 37° C. (90-minute for CCR2; 150-minute for CCR9), during which cells migrated […] the chemokine gradient, the assay was terminated by removing the cell drops from atop the filter. To quantify cells migrated across the membrane, 5 μL of 7X CyQUANT® solution was added to each well in the lower chamber, and the fluorescence signal measured on a Spectrafluor Plus fluorescence plate reader (TECAN, Durham, N.C.). The degree of inhibition was determined by comparing migration signals between compound-treated and untreated cells. IC50 calculation was further performed by non-linear squares regression analysis using Graphpad Prism (Graphpad Software, San Diego, Calif.).
Calcium flux assay measures an increase in intracellular calcium following ligand-induced receptor activation. In the screen of chemokine antagonists, it was used as a secondary assay carried out on a FLIPR® machine (Molecular Devices, Mountain View, Calif.). To begin an assay, chemokine expressing cells (such as THP-1 cells for CCR2 assay or MOLT-4 cells for CCR9 assay) were harvested by centrifugation of cell suspension, and resuspended to 1.5×10^6 cells/mL in HBSS (with 1% fetal calf serum). Cells were then labeled with a calcium indicator dye Fluo-4 AM for 45 minutes at 37° C. with gentle shaking. Following incubation, cells were pelletted, washed once with HBSS and resuspended in the same buffer at a density of 1.6×10^6 cells/mL. One hundred microliters of labeled cells were mixed with 10 μL of test compound at the appropriate concentrations on an assay plate. Chemokine protein (MCP-1 at a final concentration of 0.1 nM for CCR2 assay or TECK at a final concentration of 25 nM for CCR9 assay) to activate the receptor. The degree of inhibition was determined by comparing calcium signals between compound-treated and untreated cells. IC50 calculations were further performed by non-linear squares regression analysis using Graphpad Prism (Graphpad Software, San Diego, Calif.).
Ligand binding assay was used to determine the ability of potential CCR2 antagonists to block the interaction between CCR2 and its ligand MCP-1. […]

[1] = Table 2: activity in one of the chemotaxis
[2] = Table 3: activity in one of the chemotaxis

T1 sequence (P41597 whole entry): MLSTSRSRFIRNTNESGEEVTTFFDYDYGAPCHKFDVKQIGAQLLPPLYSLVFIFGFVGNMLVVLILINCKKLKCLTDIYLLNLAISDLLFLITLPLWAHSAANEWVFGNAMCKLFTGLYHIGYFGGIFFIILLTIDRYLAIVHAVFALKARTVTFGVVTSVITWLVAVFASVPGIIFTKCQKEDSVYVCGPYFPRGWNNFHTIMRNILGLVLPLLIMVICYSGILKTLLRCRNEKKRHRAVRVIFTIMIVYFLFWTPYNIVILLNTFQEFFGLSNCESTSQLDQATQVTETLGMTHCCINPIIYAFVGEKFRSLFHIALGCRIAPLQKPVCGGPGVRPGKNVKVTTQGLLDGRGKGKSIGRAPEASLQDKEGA

Row | Structure (SMILES) | IC50 [1] [nM] | IC50 [2] [nM]
1 | O=S(=O)(Nc1cc(Cl)ccc1C(O)c1ccccc1)c1ccc(Cl)c(C(F)(F)F)c1 (stereo not shown) | < 500 | 
2 | O=C(c1ccncc1)c1ccc(Cl)cc1NS(=O)(=O)c1ccc(Cl)c(C(F)(F)F)c1 | < 500 | 
3 | COC(=O)C1CCCN1C(=O)c1ccc(Cl)cc1NS(=O)(=O)c1ccc(Cl)c(C(F)(F)F)c1 (stereo not shown) | < 500 | 
4 | O=S(=O)(Nc1cc(Cl)ccc1Oc1ccccc1)c1ccc(Cl)c(C(F)(F)F)c1 | < 500 | 
5 | O=C(c1ccc(Cl)cc1NS(=O)(=O)c1ccc(Cl)c(C(F)(F)F)c1)N1CCOCC1 | < 500 | 
6 | Cn1cncc1C(=O)c1ccc(Cl)cc1NS(=O)(=O)c1ccc(Cl)c(C(F)(F)F)c1 | < 500 | 
7 | O=C(c1ccc(Cl)cc1NS(=O)(=O)c1ccc(Cl)c(C(F)(F)F)c1)N1CCS(=O)(=O)CC1 | < 500 | 
8 | CN(C)C(=O)C1CCCN1C(=O)c1ccc(Cl)cc1NS(=O)(=O)c1ccc(Cl)c(C(F)(F)F)c1 (stereo not shown) | < 500 | 
9 | O=C(c1ccccc1)c1ccc(Cl)cc1NS(=O)(=O)c1ccc(F)c(F)c1 | < 500 | 
10 | O=C(c1ccccc1)c1ccc(Cl)cc1NS(=O)(=O)c1cccc(C(F)(F)F)c1 | < 500 | 
11 | O=C(c1ccccc1)c1ccc(Cl)cc1NS(=O)(=O)c1ccc(Cl)cc1 | < 500 | 
12 | O=C(c1ccc(Cl)cc1NS(=O)(=O)c1ccc(Cl)c(C(F)(F)F)c1)N1CCCC1 | < 500 | 
13 | O=C(c1cocn1)c1cc(Cl)ccc1NS(=O)(=O)c1ccc(Cl)c(C(F)(F)F)c1 | < 500 | 
14 | O=C(c1cccnc1)c1cc(F)c(F)cc1NS(=O)(=O)c1ccc(Cl)c(C(F)(F)F)c1 | < 500 | 
15 | O=C(c1ccc(Cl)cc1NS(=O)(=O)c1ccc(Cl)c(Cl)c1)N1CCOCC1 | < 500 | 
16 | O=C(c1ccccc1)c1ccc(Br)cc1NS(=O)(=O)c1ccc(Cl)c(C(F)(F)F)c1 | < 500 | 
17 | O=C(c1cccnc1)c1cc(Cl)ccc1NS(=O)(=O)c1ccc(Cl)c(Cl)c1 | < 500 | 
18 | Cc1ccc(C(=O)c2cc(Cl)ccc2NS(=O)(=O)c2ccc(Cl)c(Cl)c2)cn1 | < 500 | 
19 | O=C(O)c1cc(S(=O)(=O)Nc2ccc(Cl)cc2C(=O)c2ccccc2)c(F)cc1Cl | < 500 | 
20 | Cn1nc(-c2cc(Cl)ccc2NS(=O)(=O)c2ccc(Cl)c(C(F)(F)F)c2)c2ccccc21 | < 500 | 
21 | O=C(c1ccc(Cl)cc1NS(=O)(=O)c1ccc(Cl)c([N+](=O)[O-])c1)N1CCOCC1 | < 500 | 
22 | Cn1nnnc1-c1ccc(Cl)cc1NS(=O)(=O)c1ccc(Cl)c(C(F)(F)F)c1 | < 500 | 

Row | Structure (SMILES) | IC50 [1] [nM] | IC50 [2] [nM]
23 | O=C(c1ccccc1)c1ccc(F)cc1NS(=O)(=O)c1ccc(Cl)c(C(F)(F)F)c1 | < 500 | 
24 | Cc1cc(S(=O)(=O)Nc2cc(Cl)ccc2C(=O)N(C)c2ccccn2)ccc1Cl | < 500 | 
25 | CN(C(=O)c1ccc(Cl)cc1NS(=O)(=O)c1cccc(C(F)(F)F)c1)c1ccccn1 | < 500 | 
26 | O=C(c1ccc(Cl)cc1NS(=O)(=O)c1ccc(Cl)c(C(F)(F)F)c1)c1ccnc2[nH]ccc12 | < 500 | 
27 | CO/N=C(/c1ccc(Cl)cc1NS(=O)(=O)c1ccc(Cl)c(C(F)(F)F)c1)c1ccnc2[nH]ccc12 | < 500 | 
28 | Cc1nnc(-c2cc(Cl)ccc2NS(=O)(=O)c2ccc(C(C)(C)C)cc2)c2ccccc12 | < 500 | 
29 | CC(C)(C)c1ccc(S(=O)(=O)Nc2ccc(Cl)cc2-c2nncc3ccccc23)cc1 | < 500 | 
30 | N#Cc1cc(S(=O)(=O)Nc2cc(Cl)ccc2C(=O)c2ccccc2)ccc1F |  | 500 to 5000
31 | Cc1ccc(C(=O)c2ccccc2)c(NS(=O)(=O)c2ccc(Cl)c(C(F)(F)F)c2)c1 |  | 500 to 5000
32 | COc1ccc(NS(=O)(=O)c2ccc(Cl)c(Cl)c2)c(C(=O)N2CCOCC2)c1 |  | 500 to 5000
33 | O=C(c1ccccn1)c1cc(Cl)ccc1NS(=O)(=O)c1ccc(Cl)c(C(F)(F)F)c1 |  | 500 to 5000
34 | Cn1ccnc1C(=O)c1cc(Cl)ccc1NS(=O)(=O)c1ccc(Cl)c([N+](=O)[O-])c1 |  | 500 to 5000
35 | O=S(=O)(Nc1ccccc1Oc1ccccc1)c1ccc(Cl)c(Cl)c1 |  | 500 to 5000
36 | CNC(=O)C1CCCN1C(=O)c1ccc(Cl)cc1NS(=O)(=O)c1ccc(Cl)c(C(F)(F)F)c1 (stereo not shown) |  | 500 to 5000
37 | O=C(c1ccccn1)c1cc(Cl)ccc1NS(=O)(=O)c1ccc(Cl)c(Cl)c1 |  | 500 to 5000
38 | O=C(c1ccc(Cl)cc1NS(=O)(=O)c1ccc(Cl)cc1)N1CCOCC1 |  | 500 to 5000
39 | O=C(c1cc(Br)ccc1NS(=O)(=O)c1ccc(Cl)cc1)N1CCOCC1 |  | 500 to 5000
40 | O=C(c1ccccc1)c1cc(Cl)ccc1NS(=O)(=O)c1cccc(C(F)(F)F)c1 |  | 500 to 5000
41 | O=C(c1cc(Cl)ccc1NS(=O)(=O)c1ccc(Cl)cc1)N1CCOCC1 |  | 500 to 5000
42 | O=C(c1ccccc1)c1cc(Cl)ccc1NS(=O)(=O)c1ccc(F)c(Cl)c1 |  | 500 to 5000
43 | O=C(c1ccncc1)c1cc(Cl)ccc1NS(=O)(=O)c1ccc(Cl)cc1 |  | 500 to 5000
44 | Cc1cccc(S(=O)(=O)Nc2ccc(Cl)cc2C(=O)N2CCOCC2)c1 |  | 500 to 5000

Row | Structure (SMILES) | IC50 [1] [nM] | IC50 [2] [nM]
45 | O=C(c1cc(Cl)ccc1NS(=O)(=O)c1cccc(Cl)c1)N1CCOCC1 |  | 500 to 5000
46 | O=C(c1cc(Cl)ccc1NS(=O)(=O)c1ccc(Cl)c(Cl)c1)N1CCOCC1 |  | 500 to 5000
47 | O=C(c1cc(Cl)ccc1NS(=O)(=O)c1ccc(Cl)cc1Cl)N1CCOCC1 |  | 500 to 5000
48 | Cc1cc(S(=O)(=O)Nc2cc(Cl)ccc2C(=O)N2CCOc3cccnc32)ccc1Cl |  | 500 to 5000
49 | O=C(c1cc(Cl)ccc1NS(=O)(=O)c1ccc(Br)cc1)N1CCOCC1 |  | 500 to 5000
50 | O=C(c1cc(Cl)ccc1NS(=O)(=O)c1ccc(Cl)cc1)N1CCCCC1 |  | 500 to 5000
51 | O=C(c1ccc(Cl)cc1NS(=O)(=O)c1ccc(C(F)(F)F)cc1Cl)N1CCOCC1 |  | 500 to 5000
52 | CON=C(c1ccccc1)c1cc(Cl)ccc1NS(=O)(=O)c1ccc(Cl)c(Cl)c1 |  | 500 to 5000
53 | O=S(=O)(Nc1ccc(Cl)cc1Oc1ccccc1)c1ccc(Cl)c(Cl)c1 |  | 500 to 5000
54 | Cn1ccnc1C(=O)c1cc(Cl)ccc1NS(=O)(=O)c1ccc(Cl)c(Cl)c1 |  | 500 to 5000
55 | COC(=O)c1cc(NS(=O)(=O)c2ccc(Cl)c(Cl)c2)c(C(=O)c2ccccc2)cc1Cl |  | 500 to 5000
56 | O=C(c1ccccc1)c1cc(Cl)ccc1NS(=O)(=O)c1ccc(Cl)c([N+](=O)[O-])c1 |  | 500 to 5000
57 | Cc1ccc(S(=O)(=O)Nc2ccc(Cl)cc2C(=O)c2ccccc2)cc1Cl |  | 500 to 5000
58 | O=C(c1ccccc1)c1cc(Cl)ccc1NS(=O)(=O)c1ccc(C(F)(F)F)cc1[N+](=O)[O-] |  | 500 to 5000
59 | O=S(=O)(Nc1ccc(Cl)cc1-c1ccccc1)c1ccc(Cl)c(Cl)c1 |  | 500 to 5000
60 | O=S(=O)(Nc1cc(Cl)ccc1-c1nnn[nH]1)c1ccc(Cl)c(C(F)(F)F)c1 |  | 500 to 5000
61 | O=S(=O)(Nc1cc(Cl)ccc1-c1ncco1)c1ccc(Cl)c(Cl)c1 |  | 500 to 5000
62 | O=S(=O)(Nc1ccc(Cl)cc1-c1ccccn1)c1ccc(Cl)c(C(F)(F)F)c1 |  | 500 to 5000
63 | O=C(O)C1CCCN1C(=O)c1ccc(Cl)cc1NS(=O)(=O)c1ccc(Cl)c(C(F)(F)F)c1 (stereo not shown) |  | 500 to 5000
64 | O=C(c1ccc(Cl)cc1NS(=O)(=O)c1ccc(Br)c(F)c1)N1CCOCC1 |  | 500 to 5000

— patent US20100234364A1, “CCR2 INHIBITORS AND METHODS OF USE THEREOF” (priority 2007, published 2010)
